From patent US20260356830A1, “COMPOUNDS FOR MODULATING RET PROTEIN” (Bristol-Myers Squibb Company, priority 2022, published 2026)

Molecular target: T1, CCDC6-RET (Homo sapiens, UniProt P07949+Q16204+Q96SW2)
T1 construct: CCDC6 (natural N-terminal fusion partner, UniProt Q16204); endogenous in cells; host or cells: TPC-1 (parental, papillary thyroid carcinoma)
Assay: Cellular RET degradation, AlphaLISA, TPC-1 cell line
Format: cell-based
Details: for Dmax: TPC1, human, 24 h, read-out: Cell Density TPC-1/CCDC6-RET Ymax %; for DC50: read-out: Cell Density TPC-1/CCDC6-RET DC50, half-maximal degradation concentration, TPC-1 (CCDC6-RET), 24 hrs
Procedure: Cellular RET degradation compound potency was determined using the bead-based luminescent amplification assay-AlphaLISA Surefire Ultra Detection Kit (Perkin-Elmer). The CCDC6-RET fusion expressing papillary thyroid carcinoma (TPC-1) cell line was selected for screening of potential degraders: Parental (TPC-1/CCDC6-RET). Cells were plated in 384 well culture plates (Greiner Bio-One) at 10,000 cells/well in 50 ul/well DMEM (Fisher Scientific) with 2% FBS serum (Gibco). […] Low normalization wells were media only and high normalization wells were cells treated with DMSO only. Treated cell plates were placed in an incubator at 37 °C and 5% CO2 for 24 hrs. At 24 hrs, cell media was removed by a FELIX automated liquid hander (Analytik Jena) and 25 ul of cell lysis buffer (provided in AlphaLisa kit) was added to each well. […] cell lysate were transferred into a 384-well microplate (Perkin Elmer) before addition of 2.5 ul AlphaLISA Acceptor Bead mix. The plates were sealed and kept at room temperature for 1 hr before addition of donor bead mixture. Donor bead addition was performed in the dark and incubated for >1 hr before AlphaLISA luminescence was measured on an Envision plate reader with an Alphascreen aperture at RT (excitation 680 nm, emission 615 nm). RET protein abundance (and therefore degradation) directly corresponds to luminescence intensity.
Intensities were normalized relative to the average values from 16 wells containing media alone (blank-low) and 16 wells containing cells +DMSO (high). % Degradation for each well was determined using the standard equation, where
DC50 (IC50) values for each compound tested are calculated by analyzing plots of % degradation versus compound concentration, and fitting to the standard 4-parameter logistic curve where,
DC50 values are calculated according to the relationship,
Compound replicates were performed in independent assays. Maximum degradation (YMax) was defined as the maximal % degradation value from the 4-parameter logistic equation, as previously described.

T1 sequence (Q16204+P07949 fused): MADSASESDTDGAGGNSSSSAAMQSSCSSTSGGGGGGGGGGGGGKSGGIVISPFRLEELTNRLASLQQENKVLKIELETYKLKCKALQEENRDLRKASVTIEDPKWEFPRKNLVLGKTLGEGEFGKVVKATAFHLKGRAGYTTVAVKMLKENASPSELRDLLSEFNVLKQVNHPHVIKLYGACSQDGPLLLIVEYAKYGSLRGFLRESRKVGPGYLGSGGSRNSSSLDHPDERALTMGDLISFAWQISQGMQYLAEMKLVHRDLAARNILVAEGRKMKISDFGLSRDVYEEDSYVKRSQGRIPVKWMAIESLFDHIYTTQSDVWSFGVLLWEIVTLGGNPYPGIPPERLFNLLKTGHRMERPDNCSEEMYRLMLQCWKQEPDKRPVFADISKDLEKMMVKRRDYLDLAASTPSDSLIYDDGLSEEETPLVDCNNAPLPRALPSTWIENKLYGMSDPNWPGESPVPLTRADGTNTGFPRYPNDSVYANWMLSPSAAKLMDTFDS
T1 sequence (Q96SW2 whole entry, the tested form may be a part): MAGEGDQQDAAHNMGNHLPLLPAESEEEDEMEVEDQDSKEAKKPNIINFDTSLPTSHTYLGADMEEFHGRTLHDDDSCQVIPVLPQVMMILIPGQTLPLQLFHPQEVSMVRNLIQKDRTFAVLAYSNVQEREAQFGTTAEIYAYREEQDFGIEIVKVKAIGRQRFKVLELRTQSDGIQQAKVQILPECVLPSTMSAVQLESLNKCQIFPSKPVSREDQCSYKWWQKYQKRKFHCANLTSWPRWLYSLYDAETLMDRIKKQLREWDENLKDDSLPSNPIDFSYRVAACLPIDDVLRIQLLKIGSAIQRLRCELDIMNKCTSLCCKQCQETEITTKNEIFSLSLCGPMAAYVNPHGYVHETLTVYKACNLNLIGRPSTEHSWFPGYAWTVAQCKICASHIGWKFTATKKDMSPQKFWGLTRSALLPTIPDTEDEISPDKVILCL
T1 sequence (Q16531 whole entry partner, the tested form may be a part): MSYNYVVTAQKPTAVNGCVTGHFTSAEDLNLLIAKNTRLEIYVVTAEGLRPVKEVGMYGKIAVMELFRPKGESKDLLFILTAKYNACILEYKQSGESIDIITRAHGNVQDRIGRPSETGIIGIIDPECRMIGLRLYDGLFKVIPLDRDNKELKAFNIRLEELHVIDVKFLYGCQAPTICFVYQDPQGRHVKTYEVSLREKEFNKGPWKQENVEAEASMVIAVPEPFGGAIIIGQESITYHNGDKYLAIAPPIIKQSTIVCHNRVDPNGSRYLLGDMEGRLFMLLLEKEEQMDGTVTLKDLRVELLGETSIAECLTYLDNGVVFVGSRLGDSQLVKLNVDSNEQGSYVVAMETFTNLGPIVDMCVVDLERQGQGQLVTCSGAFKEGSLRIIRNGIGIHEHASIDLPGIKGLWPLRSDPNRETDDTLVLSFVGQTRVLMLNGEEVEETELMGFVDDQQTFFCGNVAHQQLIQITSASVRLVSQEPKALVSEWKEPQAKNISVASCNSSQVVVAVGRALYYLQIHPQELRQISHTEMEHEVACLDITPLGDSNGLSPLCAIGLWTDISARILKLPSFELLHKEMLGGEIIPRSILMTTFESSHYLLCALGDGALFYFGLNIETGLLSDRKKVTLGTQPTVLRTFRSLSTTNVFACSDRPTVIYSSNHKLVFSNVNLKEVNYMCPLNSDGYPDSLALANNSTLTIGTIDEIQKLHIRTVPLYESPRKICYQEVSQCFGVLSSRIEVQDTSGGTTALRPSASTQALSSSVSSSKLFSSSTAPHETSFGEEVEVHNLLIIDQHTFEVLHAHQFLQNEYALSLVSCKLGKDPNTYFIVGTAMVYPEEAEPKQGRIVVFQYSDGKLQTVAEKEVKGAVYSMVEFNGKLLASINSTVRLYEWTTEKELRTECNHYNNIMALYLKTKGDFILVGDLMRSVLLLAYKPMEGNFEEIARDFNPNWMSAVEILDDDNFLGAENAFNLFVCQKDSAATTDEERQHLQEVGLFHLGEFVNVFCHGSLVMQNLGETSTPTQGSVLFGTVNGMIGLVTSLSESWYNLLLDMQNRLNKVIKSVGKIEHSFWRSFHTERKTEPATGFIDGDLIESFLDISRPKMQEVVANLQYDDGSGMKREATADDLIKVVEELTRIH

SMILES | Dmax | DC50
CCOc1cc(-c2ccc(N3CCC(CN(C(=O)CCCCN4CCN(c5ccc6c(c5)CN(C5CCC(=O)NC5=O)C6=O)CC4)C(C)C)(NC(=O)c4cc(F)ccc4F)CC3)nc2)c2c(C#N)cnn2c1 (stereo not shown) [Example 164, N-[1-(5-{3-cyano-6-ethoxypyrazolo[1,5-a]pyridin-4-yl}pyridin-2-yl)-4-[(5-{4-[2-(2,6-dioxopiperidin-3-yl)-1-oxo-2,3-dihydro-1H-isoindol-5-yl]piperazin-1-yl}-N-(propan-2-yl)pentanamido)methyl]piperidin-4-yl]-2,5-difluorobenzamide] | > 90% | 2 to 10 nM
CCOc1cc(-c2ccc(N3CCC(CN4CCN(CC5CCN(C(=O)Cc6ccc7c(c6)CN(C6CCC(=O)NC6=O)C7=O)CC5)CC4)(NC(=O)c4cc(F)ccc4F)CC3)nc2)c2c(C#N)cnn2c1 (stereo not shown) [Example 112, N-[1-(5-{3-cyano-6-ethoxypyrazolo[1,5-a]pyridin-4-yl}pyridin-2-yl)-4-({4-[(1-{2-[2-(2,6-dioxopiperidin-3-yl)-1-oxo-2,3-dihydro-1H-isoindol-5-yl]acetyl}piperidin-4-yl)methyl]piperazin-1-yl}methyl)piperidin-4-yl]-2,5-difluorobenzamide] | > 90% | 2 to 10 nM
CCOc1cc(-c2ccc(N3CCC(CN4CCN(C(=O)CCCCCCCCNc5ccc6c(C7CCC(=O)NC7=O)nn(C)c6c5)CC4)(NC(=O)c4cc(F)ccc4F)CC3)nc2)c2c(C#N)cnn2c1 (stereo not shown) [Example 25, N-[1-(5-{3-cyano-6-ethoxypyrazolo[1,5-a]pyridin-4-yl}pyridin-2-yl)-4-{[4-(9-{[3-(2,6-dioxopiperidin-3-yl)-1-methyl-1H-indazol-6-yl]amino}nonanoyl)piperazin-1-yl]methyl}piperidin-4-yl]-2,5-difluorobenzamide] | > 90% | 2 to 10 nM
CCOc1cc(-c2ccc(N3CCC(CN4CCN(C(=O)CCCCCCNc5ccc(C6CCC(=O)NC6=O)cc5)CC4)(NC(=O)c4cc(F)ccc4F)CC3)nc2)c2c(C#N)cnn2c1 (stereo not shown) [Example 20, N-[1-(5-{3-cyano-6-ethoxypyrazolo[1,5-a]pyridin-4-yl}pyridin-2-yl)-4-{[4-(7-{[4-(2,6-dioxopiperidin-3-yl)phenyl]amino}heptanoyl)piperazin-1-yl]methyl}piperidin-4-yl]-2,5-difluorobenzamide] | > 90% | 2 to 10 nM
CCOc1cc(-c2ccc(N3CCC(CN4CCN(C(=O)CCCCN5CCN(c6ccc7c(c6)CN(C6CCC(=O)NC6=O)C7=O)CC5)CC4)(NC(=O)c4cc(F)ccc4F)CC3)nc2)c2c(C#N)cnn2c1 (stereo not shown) [Example 5, N-(1-(5-(3-cyano-6-ethoxypyrazolo[1,5-a]pyridin-4-yl)pyridin-2-yl)-4-((4-(5-(4-(2-(2,6-dioxopiperidin-3-yl)-1-oxoisoindolin-5-yl)piperazin-1-yl)pentanoyl)piperazin-1-yl)methyl)piperidin-4-yl)-2,5-difluorobenzamide] | > 90% | 2 to 10 nM
CCOc1cc(-c2ccc(N3CCC(COCc4cn(CCCCCCN5CCN(c6ccc7c(c6)CN(C6CCC(=O)NC6=O)C7=O)CC5)nn4)(NC(=O)c4cc(F)ccc4F)CC3)nc2)c2c(C#N)cnn2c1 (stereo not shown) [Example 47, N-[1-[5-(3-cyano-6-ethoxy-pyrazolo[1,5-a]pyridin-4-yl)-2-pyridyl]-4-[[1-[6-[4-[2-(2,6-dioxo-3-piperidyl)-1-oxo-isoindolin-5-yl]piperazin-1-yl]hexyl]triazol-4-yl]methoxymethyl]-4-piperidyl]-2,5-difluoro-benzamide] | > 90% | 2 to 10 nM
CCOc1cc(-c2ccc(N3CCC(NC(=O)c4cc(F)ccc4F)(C(=O)NCCCCCCCCCCNc4ccc5c(N6CCC(=O)NC6=O)nn(C)c5c4)CC3)nc2)c2c(C#N)cnn2c1 [Example 153, 1-(5-{3-cyano-6-ethoxypyrazolo[1,5-a]pyridin-4-yl}pyridin-2-yl)-4-(2,5-difluorobenzamido)-N-(10-{[3-(2,4-dioxo-1,3-diazinan-1-yl)-1-methyl-1H-indazol-6-yl]amino}decyl)piperidine-4-carboxamide] | > 90% | 2 to 10 nM
CCOc1cc(-c2ccc(N3CCC(CN4CCN(C(=O)CCCCCCN5CCN(c6ccc7c(c6)CN(C6CCC(=O)NC6=O)C7=O)CC5)CC4)CC3)nc2)c2c(C#N)cnn2c1 (stereo not shown) [Example 125, 4-[6-(4-{[4-(7-{4-[2-(2,6-dioxopiperidin-3-yl)-1-oxo-2,3-dihydro-1H-isoindol-5-yl]piperazin-1-yl}heptanoyl)piperazin-1-yl]methyl}piperidin-1-yl)pyridin-3-yl]-6-ethoxypyrazolo[1,5-a]pyridine-3-carbonitrile] | > 90% | 10 to 100 nM
CCOc1cc(-c2ccc(N3CCC(CN4CCC5(CC4)CCN(C(=O)CCN4CCC(c6ccc7c(c6)CN(C6CCC(=O)NC6=O)C7=O)CC4)CC5)(NC(=O)c4cc(F)ccc4F)CC3)nc2)c2c(C#N)cnn2c1 (stereo not shown) [Example 88, N-[1-(5-{3-cyano-6-ethoxypyrazolo[1,5-a]pyridin-4-yl}pyridin-2-yl)-4-{[9-(3-{4-[2-(2,6-dioxopiperidin-3-yl)-1-oxo-2,3-dihydro-1H-isoindol-5-yl]piperidin-1-yl}propanoyl)-3,9-diazaspiro[5.5]undecan-3-yl]methyl}piperidin-4-yl]-2,5-difluorobenzamide] | > 90% | 10 to 100 nM

Now from value to compound:

Dmax | DC50 | SMILES
> 90% | < 2 nM | CCOc1cc(-c2ccc(N3CCC(CN4CCC5(CCC(CC(=O)N6CCN(c7ccc8c(c7)CN(C7CCC(=O)NC7=O)C8=O)CC6)CC5)CC4)(NC(=O)c4cc(F)ccc4F)CC3)nc2)c2c(C#N)cnn2c1 (stereo not shown) [Example 124, N-[1-(5-{3-cyano-6-ethoxypyrazolo[1,5-a]pyridin-4-yl}pyridin-2-yl)-4-{[9-(2-{4-[2-(2,6-dioxopiperidin-3-yl)-1-oxo-2,3-dihydro-1H-isoindol-5-yl]piperazin-1-yl}-2-oxoethyl)-3-azaspiro[5.5]undecan-3-yl]methyl}piperidin-4-yl]-2,5-difluorobenzamide]
60 to 90% | < 2 nM | CCOc1cc(-c2ccc(N3CCC(NC(=O)c4cc(F)ccc4F)(C(=O)NCCCCCCN4CCN(c5ccc6c(c5)CN(C5CCC(=O)NC5=O)C6=O)CC4)CC3)nc2)c2c(C#N)cnn2c1 (stereo not shown) [Example 155, 1-(5-{3-cyano-6-ethoxypyrazolo[1,5-a]pyridin-4-yl}pyridin-2-yl)-4-(2,5-difluorobenzamido)-N-(6-{4-[2-(2,6-dioxopiperidin-3-yl)-1-oxo-2,3-dihydro-1H-isoindol-5-yl]piperazin-1-yl}hexyl)piperidine-4-carboxamide]
> 90% | < 2 nM | CCOc1cc(-c2ccc(N3CCC(CN4CCN(C(=O)C5CC6(CC(C(=O)Nc7ccc8c(N9CCC(=O)NC9=O)nn(C)c8c7)C6)C5)CC4)(NC(=O)c4cc(F)ccc4F)CC3)nc2)c2c(C#N)cnn2c1 (stereo not shown) [Example 84, 6-(4-{[1-(5-{3-cyano-6-ethoxypyrazolo[1,5-a]pyridin-4-yl}pyridin-2-yl)-4-(2,5-difluorobenzamido)piperidin-4-yl]methyl}piperazine-1-carbonyl)-N-[3-(2,4-dioxo-1,3-diazinan-1-yl)-1-methyl-1H-indazol-6-yl]spiro[3.3]heptane-2-carboxamide]
60 to 90% | < 2 nM | CCOc1cc(-c2ccc(N3CCC(CN4CCC5(CC4)CCN(C(=O)COc4ccc6c(c4)CN(C4CCC(=O)NC4=O)C6=O)CC5)(NC(=O)c4cc(F)ccc4F)CC3)nc2)c2c(C#N)cnn2c1 (stereo not shown) [Example 99, N-[1-(5-{3-cyano-6-ethoxypyrazolo[1,5-a]pyridin-4-yl}pyridin-2-yl)-4-{[9-(2-{[2-(2,6-dioxopiperidin-3-yl)-1-oxo-2,3-dihydro-1H-isoindol-5-yl]oxy}acetyl)-3,9-diazaspiro[5.5]undecan-3-yl]methyl}piperidin-4-yl]-2,5-difluorobenzamide]
> 90% | < 2 nM | CCOc1cc(-c2ccc(N3CCC(CN4CCN(C(=O)CCCCCCN5CCN(c6ccc7c(N8CCC(=O)NC8=O)nn(C)c7c6)CC5)CC4)(NC(=O)c4cc(F)ccc4F)CC3)nc2)c2c(C#N)cnn2c1 [Example 41, N-(1-(5-(3-cyano-6-ethoxypyrazolo[1,5-a]pyridin-4-yl)pyridin-2-yl)-4-((4-(7-(4-(3-(2,4-dioxotetrahydropyrimidin-1(2H)-yl)-1-methyl-1H-indazol-6-yl)piperazin-1-yl)heptanoyl)piperazin-1-yl)methyl)piperidin-4-yl)-2,5-difluorobenzamide]
